Measured values reported in patent publication US20230057984A1, “NORMALIZATION OF CULTURE OF CORNEAL ENDOTHELIAL CELLS” (KYOTO PREFECTURAL PUBLIC UNIVERSITY CORPORATION, priority 2011, published 2023).

System: Human corneal endothelial cells
Test: Immunostaining and Western blot of Na+/K+-ATPase and ZO-1 in human corneal endothelial cells with SB431542 (FIG. 9A A, B)
Assay type: cell-based
Conditions: HCEC
Protocol: For tissue staining examination, cultured MCECs or HCECs were put into Lab-Tek™ Chamber Slides™ (NUNC A/S, Roskilde, Denmark), fixed with 4% formaldehyde for 10 minutes at a room temperature (RT), and incubated for 30 minutes with 1% bovine serum albumin (BSA). Specifically, cultured MCECs or HCECs on the Lab-Tek™ Chamber Slides™ (NUNCA/S, Roskilde, Denmark) were fixed at a room temperature for 10 minutes in 4% formaldehyde, followed by incubation for 30 minutes together with 1% bovine serum albumin (BSA). In order to examine the phenotype of CEC, immunohistochemical analysis was directed to a protein associated with tight junction, ZO-1 (Zymed Laboratories, Inc., South San Francisco, Calif.), a protein associated with the pumping function, Na^+/K^+-ATPase (Upstate Biotec, Inc., Lake Placid, N.Y.), fibronectin (BD, Franklin Lakes, N.J.), and actine. As markers associated with the function of CEC, ZO-1 and Na^+/K^+-ATPase were used; fibronectin and type 1 collagen were used to evaluate the change in a fibroblastic manner; and staining of actine was used to evaluate the phenotype of the cells. Staining of ZO-1, Na^+/K^+-ATPase, type 1 collagen and fibronectin was each performed using 1:200 dilution of ZO-1 polyclonal antibody, Na^+/K^+-ATPase monoclonal antibody, and fibronectin monoclonal antibody. As to secondary antibody, 1:2000 dilution of Alexa Fluor (registered trademark) 488 label or Alexa Fluor (registered trademark) 594 label goat antimouse IgG (Life Technologies) was used. Staining of actine was performed using 1:400 dilution of Alexa Fluor (registered trademark) 488 label phalloidin (Life Technologies). […] Next, the slides were observed through a fluorescence microscope (TCS SP2 AOBS; Leica Microsystems, Welzlar, Germany).
Next, reaction was allowed for 1 hour at a room temperature with ALEXA FLUOR 488 (INVITROGEN (catalog number: A21206)) and ALEXA FLUOR 594 (INVITROGEN (catalog number: A21203)), diluted with TBS-T by 1,000 fold. […] After washing, bands were detected using an ECL-ADVAVCE Western Blotting Detection Kit (GE healthcare Japan (catalog number: RPN2135V)). […]

NC(=O)c1ccc(-c2nc(-c3ccc4c(c3)OCO4)c(-c3ccccn3)[nH]2)cc1 [SB431542]
expression of Na+/K+-ATPase and ZO-1 (immunostaining) (1 μM SB431542, in normal culture medium only a subpopulation of cells): expression was recognized in all the cells | intracellular localization of Na+/K+-ATPase and ZO-1 (SB431542): allows for the intracellular localization of Na^+/K^+-ATPase and ZO-1 in a cell membrane | protein expression of Na+/K+-ATPase and ZO-1 (Western blot) (SB431542 0.1 μM, 1 μM, 10 μM): makes it possible to maintain the protein expression thereof
